Results published in patent US6447768B1, “Methods of gene therapy with a DNA sequence encoding NOS” (priority 1998, dated 2002).

System: Human foreskin microvascular endothelial cells (MVEC)
Experiment: Angiogenesis assay: capillary-like tube formation of MVEC in fibrin matrix
Type: cell-based
Conditions: for formation of capillary-like structures in fibrin matrices: uninfected MVEC, in combination with TNF-α
Experimental: Human foreskin microvascular endothelial cells (MVEC) were grown to confluency in M199 medium supplemented with 10% human serum (HS), 10% new-born calf serum (NBCS), penicillin and streptomycin and infected with 3.10_ pfu/ml Ad.IG.CMV.eNOS for 1 hour in M199 +2% NBCS. Medium was refreshed and cells were incubated overnight in M199+10% HS+10% NBCS.
Angiogenesis was analysed as described in Koolwijk et al. J. Cell Biol. 132 p1177-1188 (1996). Briefly, highly confluent MVEC were detached, seeded in a 1.25:1 split ratio on human fibrin matrices as cultures consisting either of uninfected cells, 100% infected cells or mixed cultures consisting of 10% infected/90% uninfected cells and cultured in M199 medium supplemented with 10% human serum (HS), 10% new-born calf serum (NBCS), penicillin and streptomycin.
Invading cells and the formation of tubular structures of endothelial cells in the three-dimensional fibrin matrix were analysed by phase contrast microscopy. After 7 days the total length of the tube-like structure of six randomly chosen microscopic fields per well (7.3 mm^2/field=43.8% of the total well) was measured using a Nikon FXA microscope equipped with a monochrome CCD camera (MX5) connected to a computer with Optimas image analysis software, and expressed as total tube length/cm^2.
For the angiogenesis experiments incubations are performed with cultures of uninfected cells, 10% infected MVEC and of 100% infected MVEC.
All incubations have been performed in the presence of 1 ng/ml TNF-α. Specific conditions tested in the presence and absence of virus were control, +bFGF: 5 ng/ml, +VEGF: 25 ng/ml, +bFGF+L-NAME: 5 ng/ml, 100 iM

Q: For `COC(=O)[C@@H](N)CCCNC(=N)N[N+](=O)[O-]` [L-NAME], which “effect on tube formation” value (100 μM, bFGF+TNF-α stimulated cultures, with and without NOS infected cells) is on record?
A: small reduction of tube formation

Q: With bFGF: basic Fibroblast Growth Factor as the compound, how does the “formation of capillary-like structures in fibrin matrices” value read?
A: formed capillary-like structures

Q: How did the “formation of capillary-like structures in fibrin matrices” value turn out when VEGF was run?
A: formed capillary-like structures
